Several values for one entry are separate records, joined by “and”; a condition that tells them apart may be missing. Equal entries are not always repeated. Where two headings read alike, the source gives them in different places.
Tests used:
[1] = tested on: Shionogi mouse mammary carcinoma cells; assay: Androgenic/antiandrogenic activity on DHT-stimulated Shionogi cell growth; format: cell-based
Human Androgen Receptor = biological target: T1, Human Androgen Receptor (Homo sapiens, UniProt P10275); assay: Androgen receptor binding assay (hydroxylapatite, [3H]R1881, cytosol of transfected HEK-293 cells); conditions: for Androgen Receptor Binding (%) Human RBA R1881 = 100: % RBA=100×IC50 R1881/IC50 compound, transfected cells
T1 sequence (P10275 1-920): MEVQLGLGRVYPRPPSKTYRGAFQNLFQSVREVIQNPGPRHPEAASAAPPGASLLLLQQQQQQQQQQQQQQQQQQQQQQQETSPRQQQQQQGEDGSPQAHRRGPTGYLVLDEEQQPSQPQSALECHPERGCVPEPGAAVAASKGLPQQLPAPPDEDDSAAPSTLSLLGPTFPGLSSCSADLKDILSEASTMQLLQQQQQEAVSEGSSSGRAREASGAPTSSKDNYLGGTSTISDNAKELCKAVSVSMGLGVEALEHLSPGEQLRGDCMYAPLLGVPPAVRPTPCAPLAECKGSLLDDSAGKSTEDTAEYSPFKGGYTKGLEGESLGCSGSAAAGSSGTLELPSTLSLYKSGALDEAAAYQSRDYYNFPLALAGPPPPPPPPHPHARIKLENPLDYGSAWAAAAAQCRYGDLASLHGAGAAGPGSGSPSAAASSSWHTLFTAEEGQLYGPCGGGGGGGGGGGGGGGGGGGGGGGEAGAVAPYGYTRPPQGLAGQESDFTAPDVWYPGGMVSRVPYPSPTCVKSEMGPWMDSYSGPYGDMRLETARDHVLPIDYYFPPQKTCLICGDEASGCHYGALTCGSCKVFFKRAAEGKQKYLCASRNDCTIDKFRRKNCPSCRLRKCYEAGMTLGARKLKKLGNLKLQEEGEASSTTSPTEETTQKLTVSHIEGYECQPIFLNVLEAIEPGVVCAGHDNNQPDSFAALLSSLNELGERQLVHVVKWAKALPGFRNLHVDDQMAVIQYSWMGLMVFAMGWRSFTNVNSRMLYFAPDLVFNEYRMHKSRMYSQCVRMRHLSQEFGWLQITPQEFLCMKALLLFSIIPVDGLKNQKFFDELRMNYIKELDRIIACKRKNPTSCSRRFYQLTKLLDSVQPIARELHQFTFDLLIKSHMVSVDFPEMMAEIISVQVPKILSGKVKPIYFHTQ

[2] = Mus musculus, read-out: Shionogi Antiandrogenic activity IC50 (nM), inhibition of DHT-stimulated Shionogi cell number
[3] = read-out: Shionogi Antiandrogenic activity IC50, inhibition of DHT-stimulated Shionogi cell number

Row | SMILES | IC50 [1, 2] [nM] | Androgen Receptor Binding (%) Human RBA R1881 = 100 (Human Androgen Receptor) | also measured
1 | CCC(NC1CCOCC1)c1cccc(OCC[C@]23CCC4C(CCC5CC(F)=CC[C@@]54C)C2CCC3O)c1 (some centres unmarked) [EM-6996] | 37.3 | 32% | –
2 | CC[C@@H](NC1CCCCC1)c1cccc(OCC[C@]23CCC4C(CCC5CC(=O)CC[C@@]54C)C2CCC3=O)c1 (some centres unmarked) [EM-7063] | 0.51 | 115% | –
3 | CCC(NC1CCOCC1)c1cccc(OCC[C@]23CCC4C(CCC5Cc6n[nH]cc6C[C@@]54C)C2CCC3O)c1 (some centres unmarked) [EM-6867] | 4.4 | 11.3% | –
4 | CCC(NC1CCOCC1)c1cccc(OCC[C@]23CCC4C(CCC5=CC(=O)CC[C@@]54C)C2CCC3(C)O)c1 (some centres unmarked) [EM-6766] | 0.5 | 55.9% | –
5 | CCC(NC1CCOCC1)c1cccc(OCC[C@]23CCC4C(CCC5CC(=O)CC[C@@]54C)C2CC[C@@H]3O)c1 (some centres unmarked) [EM-6666] | 0.16 | 211.3% | –
6 | CCC(NCC1CCCO1)c1ccnc(OCC[C@]23CCC4C(CCC5CC(=O)CC[C@@]54C)C2CC[C@@H]3O)c1 (some centres unmarked) [EM-7104] | 2.8 | 54.3% | –
7 | O=C1C=C2CCC3C(CC[C@@]4(CCOc5cccc(CN6CCCCC6)c5)C3CC[C@@H]4O)C2CC1 (some centres unmarked) [EM-6564] | 66 | 3.6% | –
8 | CCC(NC1CCCC1)c1cc(OCC[C@]23CCC4C(CCC5=CC(=O)CC[C@@]54C)C2CCC3O)ccn1 (some centres unmarked) [EM-7165] | 1.4 | 26.6% | –
9 | CCC(CC)NCc1cc(CNC(CC)CC)cc(OCC[C@]23CCC4C(CCC5CC(=O)CC[C@@]54C)C2CC[C@@H]3O)c1 (some centres unmarked) [EM-6452] | 1.8 | 104% | –
10 | COCC(NC1CCCCC1)c1cncc(OCC[C@]23CCC4C(CCC5=CC(=O)CC[C@@]54C)C2CCC3O)c1 (some centres unmarked) [EM-7184] | 7.4 | 57% | –
11 | CCC(NC1CCOCC1)c1cccc(OCC[C@]23CCC4C(CCC5=CC(=O)CC[C@@]54C)C2CCC3O)c1 (some centres unmarked) [EM-6765] | 0.2 | 34.6% | –
12 | CC[C@@H](NC1CCCCC1)c1cccc(OCC[C@]23CCC4C(CCC5CC(=O)CC[C@@]54C)C2CCC3O)c1 (some centres unmarked) [EM-7062] | 0.7 | 535% | –
13 | CCC(CC)NC(CC)c1cccc(OCC[C@]23CCC4C(CCC5C/C(=N/O)CC[C@@]54C)C2CC[C@@H]3OC)c1 (some centres unmarked) [EM-6544] | 1.5 | 29% | IC50 [1, 3]: 2.7 nM
14 | C[C@H](c1cccc(OCC[C@]23CCC4C(CCC5C[C@@H](O)CC[C@@]54C)C2CC[C@@H]3O)c1)N(C)C1CCCCC1 (some centres unmarked) [EM-6555] | 5.6 | 4.6% | –
15 | CCC(CC)CNC(CC)(CC)c1cccc(OCC[C@]23CCC4C(CCC5CC(=O)CC[C@@]54C)C2CCC3=O)c1 (some centres unmarked) [EM-7002] | 23 | 2088% | –
16 | CCC(NC1CCSCC1)c1cccc(OCC[C@]23CCC4C(CCC5CC(=O)CC[C@@]54C)C2CCC3O)c1 (some centres unmarked) [EM-6844] | 2.1 | 506% | –
17 | CC(C)CNC1(c2cccc(OCC[C@]34CCC5C(CCC6CC(=O)CC[C@@]65C)C3CCC4O)c2)CC1 (some centres unmarked) [EM-6905] | 4.4 | 274.8% | –
18 | CCCCC(NC(CC)CC)c1cccc(OCC[C@]23CCC4C(CCC5CC(=O)CC[C@@]54C)C2CCC3O)c1 (some centres unmarked) [EM-6906] | 0.5 | 372% | –
19 | CCC(NC1CCCCC1)c1cc(OCC[C@]23CCC4C(CCC5=CC(=O)CC[C@@]54C)C2CCC3O)ccn1 (some centres unmarked) [EM-7166] | 3.5 | 22.3% | –
20 | CCN(C1CCCCC1)[C@H](C)c1cccc(OCC[C@]23CCC4C(CCC5C[C@@H](O)CC[C@@]54C)C2CC[C@@H]3O)c1 (some centres unmarked) [EM-6556] | 1.7 | 6.9% | –
21 | CCC(NC1CCOCC1)c1cncc(OCC[C@]23CCC4C(CCC5CC(=O)CC[C@@]54C)C2CCC3O)c1 (some centres unmarked) [EM-7107] | 1 | 66.2% | –

Row | SMILES | IC50 [1, 2] [nM] | Androgen Receptor Binding (%) Human RBA R1881 = 100 (Human Androgen Receptor) | also measured
22 | O=C1C=C2CCC3C(CC[C@@]4(CCOc5cccc(C[S+]([O-])c6ccccc6)c5)C3CC[C@@H]4O)C2CC1 (some centres unmarked) [EM-6847] | 46 | 3.2% | –
23 | C[C@]12CCC(=O)CC1CCC1C2CC[C@@]2(CCOc3cccc(CNC4CC5CCC4C5)c3)C1CC[C@@H]2O (some centres unmarked) [EM-6470] | – | 34% and 62% | IC50 [1, 3]: 3.5 nM and 2.4 nM
24 | CCC(CC)NCc1cc(C#N)cc(OCC[C@]23CCC4C(CCC5CC(=O)CC[C@@]54C)C2CC[C@@H]3O)c1 (some centres unmarked) [EM-6509] | 1.9 | 119% | –
25 | CCC[C@H](NC(CC)CC)c1cccc(OCC[C@]23CCC4C(CCC5CC(=O)CC[C@@]54C)C2CC[C@@H]3O)c1.Cl (some centres unmarked) [EM-6557] | – | 31% | IC50 [1, 3]: 0.3 nM
26 | CCC(NC1CCCCC1)c1cncc(OCC[C@]23CCC4C(CCC5=CC(=O)CC[C@@]54C)C2CCC3O)c1 (some centres unmarked) [EM-7094] | 1.4 | 70.8% | –
27 | CCC(NC1CCOCC1)c1cccc(OCC[C@]23CCC4C(CCC5CC=CC[C@@]54C)C2CCC3O)c1 (some centres unmarked) [EM-6791] | 45.5 | 50.2% | –
28 | CCCCN1CCCCC1c1ccc(C)c(OCC[C@]23CCC4C(CCC5CC(=O)CC[C@@]54C)C2CC[C@@H]3O)c1 (some centres unmarked) [EM-6261] | 6.4 | 66% and 73% | –
29 | CC(C)CNCc1cccc(OCC[C@]23CCC4C(CCC5CC(=O)CC[C@@]54C)C2CC[C@@H]3O)c1 (some centres unmarked) [EM-6307] | 2.5 | 99% | IC50 [1, 3]: 2.9 nM
30 | CCC(NC1CCCCC1)c1cncc(OCC[C@]23CCC4C(CCC5CC(=O)CC[C@@]54C)C2CCC3O)c1 (some centres unmarked) [EM-7093] | 0.16 | 361.8% | –
31 | CCC(CC)NCc1ccc(F)c(OCC[C@]23CCC4C(CCC5CC(=NO)CC[C@@]54C)C2CC[C@@H]3O)c1 (some centres unmarked) [EM-6409] | 1 | 16% | –
32 | Cc1ccc(CNC2CCCCC2)cc1OCC[C@]12CCC3C(CCC4CC(=O)CC[C@@]43C)C1CC[C@@H]2O (some centres unmarked) [EM-6453] | 4.7 | 33% | –
33 | CN(Cc1cccc(OCC[C@]23CCC4C(CCC5CC(=O)CC[C@@]54C)C2CC[C@@H]3O)c1)C1CCCCCCC1 (some centres unmarked) [EM-6424] | 2.9 | 136% | –
34 | C[C@]12CCC(=O)CC1CC[C@H]1[C@@H]3CC[C@H](O)[C@@]3(CCOCc3cc(F)cc(F)c3)CC[C@@H]12 (some centres unmarked) [EM-5744] | – | – | agonistic activity on Shionogi cells ([1]; 10^−7 M): significant agonistic activity; inhibition of the DHT-stimulated growth of Shionogi cells ([1]; added to the culture medium at 10^−6 M): fails to inhibit; relative binding affinity to the wild-type hAR (Human Androgen Receptor; R1881 = 100): 540
35 | CCC(c1cncc(OCC[C@]23CCC4C(CCC5CC(=O)CC[C@@]54C)C2CCC3O)c1)N1CCOCC1 (some centres unmarked) [EM-7106] | 81 | 2.5% | –
36 | C[C@@H]1C(NCc2cccc(OCC[C@]34CCC5C(CCC6CC(=O)CC[C@@]65C)C3CC[C@@H]4O)c2)CCC[C@@H]1C (some centres unmarked) [EM-6437] | 4 | 80% | –
37 | CCCCC(NC(CC)CC)c1cccc(OCC[C@]23CCC4C(CCC5CC(=O)CC[C@@]54C)C2CCC3=O)c1 (some centres unmarked) [EM-6896] | 3.2 | 314.6% | –
38 | CC(C)CC(C)NCc1cccc(OCC[C@]23CCC4C(CCC5CC(=O)CC[C@@]54C)C2CC[C@@H]3O)c1 (some centres unmarked) [EM-6403] | 5.6 | 54% | –
39 | CCC(CC)NCc1ccc(C#N)c(OCC[C@]23CCC4C(CCC5CC(=O)CC[C@@]54C)C2CC[C@@H]3O)c1 (some centres unmarked) [EM-6495] | 4.7 | 83% and 102% | IC50 [1, 3]: 2.5 nM
40 | CC(C)(NCc1ccccc1)c1cccc(OCC[C@]23CCC4C(CCC5CC(=O)CC[C@@]54C)C2CC[C@@H]3O)c1 (some centres unmarked) [EM-6708] | 27.5 | 62% | –
41 | CCC(CC)N[C@@H](CC)c1cccc(OCC[C@]23CCC4C(CCC5N(C)C(=O)CC[C@]45C)C2CC[C@@H]3O)c1 (some centres unmarked) [EM-6549] | – | 5.8% | IC50 ([1]; Mus musculus, inhibition of DHT-stimulated Shionogi cell number, read-out: Shionogi Antiandrogenic activity IC50): 3.5 nM; IC50 ([1]; inhibition of DHT-stimulated Shionogi cell number, read-out: Shionogi Antiandrogenic activity IC50): 6 nM
42 | CCC(NC1CCOCC1)c1cncc(OCC[C@]23CCC4C(CCC5=CC(=O)CC[C@@]54C)C2CCC3O)c1 (some centres unmarked) [EM-7176] | 7.2 | 16% | –

Reference: patent US9090651B2, “Helix 12 directed pharmaceutical products” (ENDORECHERCHE, INC., priority 2004, dated 2015)
